Patent publication US9714247B2, “Multiple kinase pathway inhibitors” (Mannkind Corporation, priority 2012, dated 2017)
pEC50, pIC50: −log10 of the molar value. Read-outs that look alike come from different tables or passages of the source.

What was measured:
[1] = tested on: Ramos; experiment: CellTiter-Glo proliferation/viability assay; assay type: cell-based, human; conditions: Homo sapiens, Ramos, read-out: Ramos EC50
[2] = target: BTK (Homo sapiens (Human), UniProt Q06187)
[3] = target: T1, Src (Homo sapiens (Human), UniProt P12931); experiment: biochemical
T1 sequence (P12931 whole entry, looked up): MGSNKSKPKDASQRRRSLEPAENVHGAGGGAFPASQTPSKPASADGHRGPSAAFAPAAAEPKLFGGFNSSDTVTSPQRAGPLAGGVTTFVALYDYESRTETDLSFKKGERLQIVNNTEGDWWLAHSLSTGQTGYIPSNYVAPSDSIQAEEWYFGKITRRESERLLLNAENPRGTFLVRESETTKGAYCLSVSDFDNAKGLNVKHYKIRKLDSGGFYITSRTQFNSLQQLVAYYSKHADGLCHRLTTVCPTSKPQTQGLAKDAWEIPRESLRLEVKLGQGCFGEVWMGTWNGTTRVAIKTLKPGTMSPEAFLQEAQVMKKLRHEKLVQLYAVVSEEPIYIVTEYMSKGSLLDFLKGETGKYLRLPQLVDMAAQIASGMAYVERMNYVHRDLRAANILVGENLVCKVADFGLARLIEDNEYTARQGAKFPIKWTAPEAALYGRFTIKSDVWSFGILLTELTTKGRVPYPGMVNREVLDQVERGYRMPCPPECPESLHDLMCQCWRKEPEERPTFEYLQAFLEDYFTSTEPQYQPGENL

[4] = tested on: DoHH2 cells; conditions: treated 24 hours
[5] = tested on: DoHH2; experiment: CellTiter-Glo proliferation/viability assay; assay type: cell-based, human; conditions: Homo sapiens, DOHH-2
[6] = target: T2, Lyn (Homo sapiens (Human), UniProt P07948); experiment: biochemical
T2 sequence (P07948 whole entry): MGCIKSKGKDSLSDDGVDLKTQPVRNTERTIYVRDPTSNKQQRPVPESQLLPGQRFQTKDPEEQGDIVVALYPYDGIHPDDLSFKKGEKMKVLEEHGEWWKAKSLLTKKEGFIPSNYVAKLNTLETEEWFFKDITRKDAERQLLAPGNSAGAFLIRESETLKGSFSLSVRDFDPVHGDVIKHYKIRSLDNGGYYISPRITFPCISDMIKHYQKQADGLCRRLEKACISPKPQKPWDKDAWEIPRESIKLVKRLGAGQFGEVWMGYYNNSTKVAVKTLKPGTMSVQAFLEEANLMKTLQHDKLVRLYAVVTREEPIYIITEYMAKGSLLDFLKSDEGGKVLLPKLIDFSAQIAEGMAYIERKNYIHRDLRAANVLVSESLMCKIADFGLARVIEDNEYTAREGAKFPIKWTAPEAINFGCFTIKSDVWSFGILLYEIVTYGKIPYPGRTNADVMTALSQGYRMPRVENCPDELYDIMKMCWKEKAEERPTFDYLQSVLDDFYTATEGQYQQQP

[7] = target: T1, Src; conditions: read-out: Src IC50
[8] = target: T2, Lyn; conditions: read-out: Lyn IC50
[9] = tested on: PLCγ2 phosphorylation in Ramos cells; experiment: PLCγ2 phosphorylation by flow cytometry; assay type: cell-based, human; conditions: Homo sapiens, flow cytometry, anti-phospho PLCγ2 (Tyr1217), four concentrations, read-out: Inhibition of phosphorylation of PLC-γ2 EC50
Method: Ramos cells were cultured in RPMI 1640 media with 10% FBS and were starved overnight (18 h) in 1% FBS containing media and on the next day pretreated with inhibitor for 2 h before stimulation. Cells were stimulated to induce BTK network dependent signal transduction pathways using mouse anti-human IgM (final concentration 10 ug/ml; Invitrogen) antibodies and 3.3 mM H2O2 mixture for 2 minutes followed by F(Ab) fragment that cross-linked the anti-IgM antibody (final concentration 10 ug/ml), and 3.3 mM H2O2 for 8 minutes. Cell lysates were prepared in lysis buffer containing protease and phosphatase inhibitors, quantified using the BCA protein assay kit (Pierce) and used for Western blotting. Antibodies specifically targeted to the molecules of interest, PLCγ2 phosphorylated at Tyr1217 and total PLCγ2, (Cell Signaling Technology) were used in a standard Western blotting procedure.
PLCγ2 phosphorylation was also assessed by flow cytometry. Cells were similarly stimulated and following stimulation, Cytofix buffer (Becton Dickinson) was added, cells were centrifuged and the cell pellets incubated on ice with Phosflow perm buffer III (Becton Dickinson). These cell pellets were washed with Perm/Wash buffer (Becton Dickinson); resuspended and labeled for flow cytometry analysis in a staining mixture containing Perm/Wash buffer and PE-labeled anti-phosphoPCLγa2 (Tyr1217) antibody (Becton Dickinson). The samples were washed with Perm/Wash buffer and analyzed on a FACS Calibur flow cytometer using CellQuest Pro software. As mentioned for the Western blot experiments, phosphorylation of PLCγ2 at Tyr1217 along with Tyr753, Tyr759 and Tyr1197 is correlated with increased PLCγ2 activity. The readout for BTK network signaling was inhibition of phosphorylation of PLCγ2. Cells were gated to exclude dead or dying cells. Fluorescence signals from the antibody staining were plotted in logarithmic units and data was analyzed using Cellquest Pro software. […] An ED50 was calculated based on the geometric mean of fluorescence intensity observed for treatment for four different concentrations of the inhibitors (see Table 7 and FIG. 6). […] Thus treatment with amino naphthyridinones inhibits PLCγ2 phosphorylation consistent with inhibition of BTK and/or LYN activity.
Following stimulation, cells were prepared for analysis by flow cytometry as described above. In short, cells were fixed and permeabilized using Cytofix buffer, Phosflow perm buffer and Perm/Wash buffer (Becton Dickinson). The cells were stained with PE-labeled anti-phosphoPCLγ2 (Tyr759) antibody (Becton Dickinson) and analyzed on a FACS Calibur flow cytometer using CellQuest Pro software. […] Thus aminonaphthyridinones are useful for the indirect inhibition of PLCγ2 phosphorylation.

[10] = Table 4, DoHH2 cells, read-out: EC50 (Proliferation)

BTK, sequence (Q06187 whole entry): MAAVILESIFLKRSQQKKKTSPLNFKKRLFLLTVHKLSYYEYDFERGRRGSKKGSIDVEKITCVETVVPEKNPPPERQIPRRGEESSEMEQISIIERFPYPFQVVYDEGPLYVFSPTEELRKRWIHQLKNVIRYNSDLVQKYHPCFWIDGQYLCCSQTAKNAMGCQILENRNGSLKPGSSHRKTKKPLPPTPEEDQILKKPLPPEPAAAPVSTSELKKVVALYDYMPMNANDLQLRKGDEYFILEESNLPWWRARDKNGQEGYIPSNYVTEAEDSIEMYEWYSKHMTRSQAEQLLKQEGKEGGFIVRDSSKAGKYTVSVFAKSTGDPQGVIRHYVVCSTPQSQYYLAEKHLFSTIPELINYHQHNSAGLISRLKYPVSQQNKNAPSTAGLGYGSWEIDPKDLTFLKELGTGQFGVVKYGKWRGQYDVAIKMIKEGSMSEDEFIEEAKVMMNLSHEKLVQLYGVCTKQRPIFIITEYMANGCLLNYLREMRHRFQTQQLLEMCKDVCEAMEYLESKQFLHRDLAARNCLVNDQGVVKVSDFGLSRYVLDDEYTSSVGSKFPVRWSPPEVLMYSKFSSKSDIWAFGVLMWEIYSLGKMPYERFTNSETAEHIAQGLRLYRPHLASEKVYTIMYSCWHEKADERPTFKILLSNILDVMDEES

SMILES	pEC50 ([1]; 48 h)	pIC50 [2]	pIC50 [3]	pIC50 [6]	pEC50 ([1]; 48 hrs)	pIC50 [7]	pIC50 [8]	pIC50 ([2]; read-out: BTK IC50)	pEC50 [9]	pIC50 ([6]; Lyn IC50)	Effect on Cell Cycle [4]	pEC50 ([5]; 48 hrs, read-out: DoHH2 EC50)	pEC50 [5, 10]
CCN(CC)CCOc1ccc(Nc2cc3c(cn2)cc(-c2ccccc2)c(=O)n3C2CCOC2)nc1 (stereo not drawn) [Compound 17, 7-((5-(2-(diethylamino)ethoxy)pyridin-2-yl)amino)-3-phenyl-1-(tetrahydrofuran-3-yl)-1,6-naphthyridin-2(1H)-one]	5.00 to 6.00	5.30 to 6.00	6.00 to 7.00	6.00 to 7.00	–	–	–	–	–	–	G1 Arrest	> 6.00	> 6.00
CCn1c(=O)c(-c2ccccc2)cc2cnc(Nc3ccc(F)cn3)cc21 [Compound 28, 1-Ethyl-7-(5-fluoro-pyridin-2-ylamino)-3-phenyl-1H-[1,6]naphthyridin-2-one]	–	–	–	–	5.00 to 6.00	< 5.30	< 5.30	< 5.30	–	–	No Arrest	5.00 to 6.00	5.00 to 6.00
CCn1c(=O)c(-c2ccccc2)cc2cnc(Nc3nccs3)cc21 [Compound 42, 1-Ethyl-3-phenyl-7-(thiazol-2-ylamino)-1H-[1,6]naphthyridin-2-one]	–	5.30 to 6.00	5.30 to 6.00	–	> 6.00	–	< 5.30	–	–	–	G2 Arrest	> 6.00	> 6.00
CCN(CC)CCOc1ccc(Nc2cc3c(cn2)cc(C(C)C)c(=O)n3C2CCCC2)nc1 [Compound 46, 1-Cyclopentyl-7-[5-(2-diethylamino-ethoxy)-pyridin-2-ylamino]-3-isopropyl-1H-[1,6]naphthyridin-2-one]	–	–	6.00 to 7.00	6.00 to 7.00	5.00 to 6.00	–	6.00 to 7.00	–	6.03	–	G1 Arrest	> 6.00	> 6.00
CCN(CC)CCOc1ccc(Nc2cc3c(cn2)cc(C(C)C)c(=O)n3C2CCC2)nc1 [Compound 47, 1-Cyclobutyl-7-[5-(2-diethylamino-ethoxy)-pyridin-2-ylamino]-3-isopropyl-1H-[1,6]naphthyridin-2-one]	–	–	–	–	–	–	–	–	–	–	G1 Arrest	–	–
CCn1c(=O)c(-c2ccccc2)cc2cnc(Nc3ccc(NCCO)cn3)cc21 [Compound 66, 1-Ethyl-7-[5-(2-hydroxy-ethylamino)-pyridin-2-ylamino]-3-phenyl-1H-[1,6]naphthyridin-2-one]	5.00 to 6.00	6.00 to 7.00	–	–	–	> 7.00	> 7.00	–	–	–	G1 Arrest	> 6.00	> 6.00
O=c1c(-c2c(F)cccc2F)cc2cnc(Nc3ccc(F)cn3)cc2n1C1CCCC1 [Compound 77, 1-cyclopentyl-3-(2,6-difluorophenyl)-7-((5-fluoropyridin-2-yl)amino)-1,6-naphthyridin-2(1H)-one]	–	–	–	–	< 5.00	> 7.00	> 7.00	–	–	–	G1 Arrest	> 6.00	> 6.00
CCn1c(=O)c(I)cc2cnc(Nc3ccc(C)cn3)cc21 [Compound 89]	–	–	–	–	> 6.00	< 5.30	< 5.30	< 5.30	–	–	G1 Arrest	> 6.00	> 6.00

The next lines start with results.

pEC50 ([1]; 48 h)	pIC50 [2]	pIC50 [3]	pIC50 [6]	pEC50 ([1]; 48 hrs)	pIC50 [7]	pIC50 [8]	pIC50 ([2]; read-out: BTK IC50)	pEC50 [9]	pIC50 ([6]; Lyn IC50)	SMILES	Effect on Cell Cycle [4]	pEC50 ([5]; 48 hrs, read-out: DoHH2 EC50)	pEC50 [5, 10]
< 5.00	5.30 to 6.00	5.30 to 6.00	6.00 to 7.00	–	–	–	–	–	–	CCn1c(=O)c(-c2ccccc2)cc2cnc(Nc3ncc(C)s3)cc21 [Compound 8, 1-Ethyl-7-(5-methyl-thiazol-2-ylamino)-3-phenyl-1H-[1,6]naphthyridin-2-one]	No Arrest	< 5.00	< 5.00
–	6.00 to 7.00	–	–	5.00 to 6.00	< 5.30	< 5.30	–	–	–	CCc1cc2cnc(Nc3ccc(C)cn3)cc2n(CC)c1=O [Compound 19, 1,3-Diethyl-7-(5-methyl-pyridin-2-ylamino)-1H-[1,6]naphthyridin-2-one]	No Arrest	5.00 to 6.00	5.00 to 6.00
< 5.00	6.00 to 7.00	6.00 to 7.00	–	–	–	> 7.00	–	–	–	CCn1c(=O)c(-c2ccccc2F)cc2cnc(Nc3ccc(C)cn3)cc21 [Compound 35, 1-ethyl-3-(2-fluorophenyl)-7-(5-methylpyridin-2-ylamino)-1,6-naphthyridin-2(1H)-one]	G1 Arrest	> 6.00	> 6.00
–	6.00 to 7.00	–	6.00 to 7.00	< 5.00	> 7.00	6.00 to 7.00	6.00 to 7.00	–	–	CCn1c(=O)c(-c2ccccc2)cc2cnc(Nc3ccc(O)cn3)cc21 [Compound 52, 1-Ethyl-7-(5-hydroxy-pyridin-2-ylamino)-3-phenyl-H-[1,6]naphthyridin-2-one]	G1 Arrest	5.00 to 6.00	5.00 to 6.00
–	–	5.30 to 6.00	–	5.00 to 6.00	–	> 7.00	–	–	–	CCn1c(=O)c(-c2ccccc2)cc2cnc(Nc3ccc(NCCN(C)C)cn3)cc21 [Compound 67, 7-[5-(2-Dimethylamino-ethylamino)-pyridin-2-ylamino]-1-ethyl-3-phenyl-1H-[1,6]naphthyridin-2-one]	G1 Arrest	> 6.00	> 6.00
–	–	–	–	< 5.00	> 7.00	< 5.30	< 5.30	–	–	CCn1c(=O)c(C(C)(C)O)cc2cnc(Nc3ccc(C)cn3)cc21 [Compound 69]	No Arrest	< 5.00	< 5.00
< 5.00	5.30 to 6.00	5.30 to 6.00	6.00 to 7.00	–	–	–	–	–	–	CCn1c(=O)c(-c2ccccc2F)cc2cnc(Nc3ccc(F)cn3)cc21 [Compound 72, 1-ethyl-3-(2-fluorophenyl)-7-(5-fluoropyridin-2-ylamino)-1,6-naphthyridin-2 (1H)-one]	G1 Arrest	5.00 to 6.00	5.00 to 6.00
5.00 to 6.00	6.00 to 7.00	6.00 to 7.00	–	–	–	6.00 to 7.00	6.00 to 7.00	–	6.00 to 7.00	CCN(CC)CCOc1ccc(Nc2cc3c(cn2)cc(-c2ccccc2)c(=O)n3CCN(C)C)nc1 [Compound 73, 7-(5-(2-(diethylamino)ethoxy)pyridin-2-ylamino)-1-(2-(dimethylamino)ethyl)-3-phenyl-1,6-naphthyridin-2(1H)-one]	G1 Arrest	> 6.00	> 6.00
–	–	–	–	5.00 to 6.00	5.59	> 7.00	–	–	–	CN1CCC(n2c(=O)c(-c3c(F)cccc3F)cc3cnc(Nc4ccc(F)cn4)cc32)CC1 [Compound 79, 3-(2,6-difluorophenyl)-7-((5-fluoropyridin-2-yl)amino)-1-(1-methylpiperidin-4-yl)-1,6-naphthyridin-2(1H)-one]	G1 Arrest	> 6.00	> 6.00
5.00 to 6.00	–	–	–	–	> 7.00	> 7.00	–	6.35	–	O=c1c(-c2c(F)cccc2F)cc2cnc(Nc3ccc(F)cn3)cc2n1C1CCOC1 (stereo not drawn) [Compound 83, 3-(2,6-difluorophenyl)-7-((5-fluoropyridin-2-yl)amino)-1-(tetrahydrofuran-3-yl)-1,6-naphthyridin-2(1H)-one]	–	> 6.00	–
